# Where two headings read alike, the source gives them in different places.
# Assays:
# [1] = test system: Mouse leukemia P-388 cells; test: Antitumor activity in mice transplanted intraperitoneally with P-388 cells; assay type: in vivo, BDF₁ mice; conditions: intraperitoneal, 24 hours after transplantation, hydrochloride
# Method: Antitumor activity of hydrochlorides of the compounds of the present invention was determined in the following manner.
# Mouse leukemia P-388 cells maintained in the abdominal cavity of BDF₁ mouse were taken out and were suspended in physiological saline to give a cell concnetration of 1 × 10⁶ cells/0.2 mℓ. The cell suspension (0.2 mℓ) was transplanted to the abdominal cavity of 5-week-old male BDF₁ mice. The compounds of the present invention as shown in Table 3 was dissolved in 0.2 mℓ of physiological saline and was intraperitoneally administered to the mouse 24 hours after the transplantation of P-388 cells. No compound was administered to the mice of the control group. The T/C% value was calculated in accordance with the following formula. [formula]
# [2] = test system: Mouse leukemia P-388 cells; test: Cytotoxicity on P-388 cells (MTT assay); assay type: cell-based; conditions: for IC₅₀: 72 hours incubation; for IC50: Mus musculus, P388, 72 hours incubation, read-out: IC₅₀
# Method: Cytotoxicity of the compounds according to the present invention was determined by MTT assay in the following manner.
# Mouse leukemia P-388 cells were suspended in RPMI medium supplemented with 10% fetal calf serum and this suspension was used to inoculate the 96-well microplate to give a cell concentration of 2 × 10³ cells/well. The compound shown in Table 2 was dissloved in RPMI medium and add to each well for the test group, while no compound was added to wells of the control group. Incubation was carried out at 37°C for 72 hours at 5% CO₂. Then, MTT (3-(4,5-dimethylthiazol-2-yl)-2,5-diphenyl tetrazolium bromide) was added to each well to cause formation of formazan. The resulting formazan was dissolved by adding sodium dodecyl sulfate. Absorbance at 577-630 nm of each well was measured by the ELISA analyzer and 50% ihibitory concentration (IC₅₀) of each compound was calculated from the absorbance ratio of the test group to the control group.
# [3] = Acute toxicity (LD50) in mice; conditions: mouse, in vivo, hydrochloride, read-out: LD₅₀
# Method: The hydrochlorides of the compounds of the present invention as shown in Table 4 were intraperitoneally or intravenously administered to mice and acute toxicity (LD₅₀) of each compound was measured.
# [4] = mouse, i.v.; cited from earlier work
compound,measurement,setting,value
"3′,11-O-diisobutyryl SF2587 [Compound 8]",Anti-P388 Activity (T/C%),[1]; Dose 2.5 mg/kg,113%
same,Anti-P388 Activity (T/C%),[1]; Dose 5 mg/kg,144%
same,Anti-P388 Activity (T/C%),[1]; Dose 10 mg/kg,175%
same,Anti-P388 Activity (T/C%),[1]; Dose 20 mg/kg,>488%
same,Anti-P388 Activity (T/C%),[1]; Dose 40 mg/kg,69%
same,IC₅₀,[2],23.1 ng/mL
"3′,11-O-divaleryl SF2587 [Compound 9]",Anti-P388 Activity (T/C%),[1]; Dose 2.5 mg/kg,96%
same,Anti-P388 Activity (T/C%),[1]; Dose 5 mg/kg,117%
same,Anti-P388 Activity (T/C%),[1]; Dose 10 mg/kg,147%
same,Anti-P388 Activity (T/C%),[1]; Dose 20 mg/kg,189%
same,Anti-P388 Activity (T/C%),[1]; Dose 40 mg/kg,227%
same,IC₅₀,[2],34.3 ng/mL
3′-O-Butyryl SF2587 [Compound 5],Anti-P388 Activity (T/C%),[1]; Dose 1.25 mg/kg,158%
same,Anti-P388 Activity (T/C%),[1]; Dose 2.5 mg/kg,186%
same,Anti-P388 Activity (T/C%),[1]; Dose 5 mg/kg,72%
same,IC₅₀,[2],17.8 ng/mL
3′-O-acetyl SF2587 Substance [Compound 1],Anti-P388 Activity (T/C%),[1]; Dose 0.25 mg/kg,124%
same,Anti-P388 Activity (T/C%),[1]; Dose 0.5 mg/kg,134%
same,Anti-P388 Activity (T/C%),[1]; Dose 1.0 mg/kg,144%
same,IC₅₀,[2],19.4 ng/mL
3′-O-isobutyryl SF2587 [Compound 7],IC₅₀,[2],55.2 ng/mL
3′-O-propionyl SF2587 [Compound 3],IC₅₀,[2],19.9 ng/mL
11-O-Butyryl SF2587 [Compound 10],IC₅₀,[2],16.0 ng/mL
"CC(=O)Oc1c(C2CC(C)(N(C)C)C(OC(C)=O)C(C)O2)ccc2c1C(=O)c1c(cc(C)c3c(=O)cc(C4(C)OC4C4OC4C)oc13)C2=O (centres unmarked) [Compound 2, 3′, 11-O-acetyl-SF2587]",LD50,"[3]; ip, injection route i.p.",16 mg/kg
same,LD50,"[3]; iv, injection route i.v.",23.5 mg/kg
same,Anti-P388 Activity (T/C%),[1]; Dose 3.5 mg/kg,163%
same,Anti-P388 Activity (T/C%),[1]; Dose 7 mg/kg,>200%
same,Anti-P388 Activity (T/C%),[1]; Dose 14 mg/kg,70%
same,IC50,[2],0.0231 µg/mL
"CCC(=O)Oc1c(C2CC(C)(N(C)C)C(OC(=O)CC)C(C)O2)ccc2c1C(=O)c1c(cc(C)c3c(=O)cc(C4(C)OC4C4OC4C)oc13)C2=O (centres unmarked) [Compound 4, 3′,11-O-dipropionyl SF2587]",LD50,"[3]; ip, injection route i.p.",40 mg/kg
same,Anti-P388 Activity (T/C%),[1]; Dose 1.56 mg/kg,130%
same,Anti-P388 Activity (T/C%),[1]; Dose 3.13 mg/kg,133%
same,Anti-P388 Activity (T/C%),[1]; Dose 6.25 mg/kg,217%
same,Anti-P388 Activity (T/C%),[1]; Dose 12.5 mg/kg,>449%
same,Anti-P388 Activity (T/C%),[1]; Dose 25 mg/kg,71%
same,IC50,[2],0.0181 µg/mL
"CCCC(=O)Oc1c(C2CC(C)(N(C)C)C(OC(=O)CCC)C(C)O2)ccc2c1C(=O)c1c(cc(C)c3c(=O)cc(C4(C)OC4C4OC4C)oc13)C2=O (centres unmarked) [Compound 6, 3′-11-O-dibutyryl SF2587]",LD50,"[3]; ip, injection route i.p.",120 mg/kg
same,Anti-P388 Activity (T/C%),[1]; Dose 1.25 mg/kg,96%
same,Anti-P388 Activity (T/C%),[1]; Dose 2.5 mg/kg,113%
same,Anti-P388 Activity (T/C%),[1]; Dose 5 mg/kg,144%
same,Anti-P388 Activity (T/C%),[1]; Dose 10 mg/kg,186%
same,Anti-P388 Activity (T/C%),[1]; Dose 20 mg/kg,>485%
same,IC50,[2],0.0231 µg/mL
Cc1cc2c(c3oc(C4(C)OC4C4OC4C)cc(=O)c13)C(=O)c1c(ccc(C3CC(C)(N(C)C)C(O)C(C)O3)c1O)C2=O (centres unmarked) [SF2587],LD₅₀,[4],about 5 mg/kg

# From patent EP0361510B1, “Antitumor substance, process for preparing the same, and anticancer agent containing the same” (MEIJI SEIKA KAISHA LTD., priority 1988, dated 1990)
